Reference: patent US20190209650A1, “METHOD TO IMPROVE THE EFFECTIVENESS OF ANTI-CANCER THERAPIES BY EXPOSING CANCER CELLS TO AN INFLAMMATORY STIMULUS PRIOR TO TREATMENT” (priority 2016, published 2019)

System: SW620 colorectal cancer cell line
Assay: Flow cytometry of EpCAM positive cells and cancer stem cell (CD44+CD133-) subpopulation after incubation with cytokines
Type: cell-based, human
Details: for % Gated, R4 (CD44FITC, CD133 PE) / % Total, R4 (CD44FITC, CD133 PE): population R4 & R14 & R2 & R1; for % Gated, R5 (CD44FITC, CD133 PE) / % Total, R5 (CD44FITC, CD133 PE): population R5 & R14 & R2 & R1; for % Gated, R6 (CD44FITC, CD133 PE) / % Total, R6 (CD44FITC, CD133 PE): population R6 & R14 & R2 & R1; for % Gated, R7 Cancer Stem Cell (CSC) (CD44+CD133-) / % Total, R7 Cancer Stem Cell (CSC) (CD44+CD133-): population R7 & R14 & R2 & R1; for % Gated, R8 (CD44FITC, EpCAMefluor710) / % Total, R8 (CD44FITC, EpCAMefluor710): population R8 & R14 & R2 & R1; for % Gated, R9 EpCAM positive Cells (CD44FITC, EpCAMefluor710) / % Total, R9 EpCAM positive Cells (CD44FITC, EpCAMefluor710): population R9 & R14 & R2 & R1; for % Gated, R10 EpCAM positive Cells (CD44FITC, EpCAMefluor710) / % Total, R10 EpCAM positive Cells (CD44FITC, EpCAMefluor710): population R10 & R14 & R2 & R1; for % Gated, R11 (CD44FITC, EpCAMefluor710) / % Total, R11 (CD44FITC, EpCAMefluor710): population R11 & R14 & R2 & R1
Description: This number returned to near baseline 21% at 48 hours. […] This change was transient, occurring within 24 hours and rapidly returning to baseline.
The data from the scatter plots of FIGS. 1A-1H, 2A-2H, and 3A-3H are reproduced below in Tables 1-3.
Based on the above data of potentiating the effectiveness of chemotherapy by exposing cancer cells to specific cytokines such as HGF and or Il-6 within a time limited fashion, the mechanism behind this ability to sensitize cancer cells may not simply be triggering cellular proliferation. Specific cytokine exposures can transiently cause a cancer cell population to differentiate away from a more stem cell enriched, mesenchymal phenotype towards a more differentiated, epithelial cell population more sensitive to the effects of anti-cancer therapies (see Tables 1-3).
In particular, exposure to a control population of SW620 colorectal cancer cell line to HGF at a concentration of 10 ng per ml for 24 hours caused the control putative stem cell population (CD44+/CD133−) to drop from 33% at baseline (see Table 1, R7 region, CD 44 positive/CD133 negative) to 1% (see Table 2, R7, region CD 44 positive/CD133 negative). This drop was transient, as exposure to the same cell line for 48 hours of HGF at 10 ng per ml transitioned the phenotypic distribution back towards a stem cell enriched phenotype with 23% putative stem cells (see Table 3, R7 region, CD 44 positive/CD133 negative).

PDGF Beta: Platelet derived growth factor BB
% Gated, R4 (CD44FITC, CD133 PE) (0 hour incubation): 49.7%
% Total, R4 (CD44FITC, CD133 PE) (0 hour incubation): 46.5%
% Gated, R5 (CD44FITC, CD133 PE) (0 hour incubation): 2.45%
% Total, R5 (CD44FITC, CD133 PE) (0 hour incubation): 2.29%
% Gated, R6 (CD44FITC, CD133 PE) (0 hour incubation): 10.7%
% Total, R6 (CD44FITC, CD133 PE) (0 hour incubation): 9.97%
% Gated, R7 Cancer Stem Cell (CSC) (CD44+CD133-) (0 hour incubation): 37.3%
% Total, R7 Cancer Stem Cell (CSC) (CD44+CD133-) (0 hour incubation): 34.9%
% Gated, R8 (CD44FITC, EpCAMefluor710) (0 hour incubation): 4.94%
% Total, R8 (CD44FITC, EpCAMefluor710) (0 hour incubation): 4.62%
% Gated, R9 EpCAM positive Cells (CD44FITC, EpCAMefluor710) (0 hour incubation): 53.5%
% Total, R9 EpCAM positive Cells (CD44FITC, EpCAMefluor710) (0 hour incubation): 50%
% Gated, R10 EpCAM positive Cells (CD44FITC, EpCAMefluor710) (0 hour incubation): 38.8%
% Total, R10 EpCAM positive Cells (CD44FITC, EpCAMefluor710) (0 hour incubation): 36.3%
% Gated, R11 (CD44FITC, EpCAMefluor710) (0 hour incubation): 2.33%
% Total, R11 (CD44FITC, EpCAMefluor710) (0 hour incubation): 2.18%
% Gated, R4 (CD44FITC, CD133 PE) (24 h incubation): 36.2%
% Total, R4 (CD44FITC, CD133 PE) (24 h incubation): 32.4%
% Gated, R5 (CD44FITC, CD133 PE) (24 h incubation): 8.6%
% Total, R5 (CD44FITC, CD133 PE) (24 h incubation): 7.7%
% Gated, R6 (CD44FITC, CD133 PE) (24 h incubation): 32.2%
% Total, R6 (CD44FITC, CD133 PE) (24 h incubation): 28.8%
% Gated, R7 Cancer Stem Cell (CSC) (CD44+CD133-) (24 h incubation): 22.6%
% Total, R7 Cancer Stem Cell (CSC) (CD44+CD133-) (24 h incubation): 20.3%
% Gated, R8 (CD44FITC, EpCAMefluor710) (24 h incubation): 4.94%
% Total, R8 (CD44FITC, EpCAMefluor710) (24 h incubation): 4.42%
% Gated, R9 EpCAM positive Cells (CD44FITC, EpCAMefluor710) (24 h incubation): 45.3%
% Total, R9 EpCAM positive Cells (CD44FITC, EpCAMefluor710) (24 h incubation): 40.6%
% Gated, R10 EpCAM positive Cells (CD44FITC, EpCAMefluor710) (24 h incubation): 47.4%
% Total, R10 EpCAM positive Cells (CD44FITC, EpCAMefluor710) (24 h incubation): 42.5%
% Gated, R11 (CD44FITC, EpCAMefluor710) (24 h incubation): 3.22%
% Total, R11 (CD44FITC, EpCAMefluor710) (24 h incubation): 2.88%
% Gated, R4 (CD44FITC, CD133 PE) (48 h incubation): 40.1%
% Total, R4 (CD44FITC, CD133 PE) (48 h incubation): 27.6%
% Gated, R5 (CD44FITC, CD133 PE) (48 h incubation): 7.5%
% Total, R5 (CD44FITC, CD133 PE) (48 h incubation): 5.16%
% Gated, R6 (CD44FITC, CD133 PE) (48 h incubation): 27.4%
% Total, R6 (CD44FITC, CD133 PE) (48 h incubation): 18.9%
% Gated, R7 Cancer Stem Cell (CSC) (CD44+CD133-) (48 h incubation): 25.6%
% Total, R7 Cancer Stem Cell (CSC) (CD44+CD133-) (48 h incubation): 17.6%
% Gated, R8 (CD44FITC, EpCAMefluor710) (48 h incubation): 24.4%
% Total, R8 (CD44FITC, EpCAMefluor710) (48 h incubation): 16.8%
% Gated, R9 EpCAM positive Cells (CD44FITC, EpCAMefluor710) (48 h incubation): 31.8%
% Total, R9 EpCAM positive Cells (CD44FITC, EpCAMefluor710) (48 h incubation): 21.9%
% Gated, R10 EpCAM positive Cells (CD44FITC, EpCAMefluor710) (48 h incubation): 23.5%
% Total, R10 EpCAM positive Cells (CD44FITC, EpCAMefluor710) (48 h incubation): 16.2%
% Gated, R11 (CD44FITC, EpCAMefluor710) (48 h incubation): 21.1%
% Total, R11 (CD44FITC, EpCAMefluor710) (48 h incubation): 14.5%
